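Exposure lasted 48 hours, with cells grown in 96-well plates and compounds tested at five concentrations. GI50 marks 50% less growth.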 Activity calls are given as the source filed them. Cut-off read from the data, not from the text of the source: active = GI50 up to about 1.1 µM and inactive = higher.
Key:
Test in all cases: growth of human tumour cells (NCI), 48 h
CCRF-CEM = test system: CCRF-CEM
A549 = test system: A549
UO-31 = test system: UO-31
HL-60 = test system: HL-60
OVCAR-8 = test system: OVCAR-8
Malme-3M = test system: Malme-3M
IGROV-1 = test system: IGROV-1
MDA-MB-435 = test system: MDA-MB-435
NCI-H522 = test system: NCI-H522
M19-MEL = test system: M19-MEL
HCT-15 = test system: HCT-15
MDA-N = test system: MDA-N
SNB-19 = test system: SNB-19
LOX IMVI = test system: LOX IMVI
M14 = test system: M14
SF-268 = test system: SF-268
DMS-114 = test system: DMS-114
ACHN = test system: ACHN
HT-29 = test system: HT-29
EKVX = test system: EKVX

SMILES	GI50 (CCRF-CEM)	GI50 (A549)	GI50 (UO-31)	GI50 (HL-60)	GI50 (OVCAR-8)	GI50 (Malme-3M)	GI50 (IGROV-1)	GI50 (MDA-MB-435)	GI50 (NCI-H522)	GI50 (M19-MEL)	GI50 (HCT-15) [µM]	GI50 (MDA-N)	GI50 (SNB-19)	GI50 (LOX IMVI)	GI50 (M14)	GI50 (SF-268)	GI50 (DMS-114)	GI50 (ACHN)	GI50 (HT-29)	GI50 (EKVX)
COc1ccc(OC)c2c(=S)c3ccccc3[nH]c12	35.3 µM (inactive)	> 100 µM (inactive)	39.4 µM (inactive)	25.3 µM (inactive)	> 73.5 µM (inactive)	84.9 µM (inactive)	> 96.6 µM (inactive)	71.3 µM (inactive)	49.1 µM (inactive)	> 100 µM (inactive)	47.5	> 100 µM (inactive)	> 100 µM (inactive)	46.8 µM (inactive)	> 100 µM (inactive)	> 86.1 µM (inactive)	32 µM (inactive)	53 µM (inactive)	64.6 µM (inactive)	> 90.2 µM (inactive)
O=C1NC(=O)C2C(=O)NC(=O)C1C2Cc1ccco1 (stereo not drawn)	> 100 µM (inactive)	> 100 µM (inactive)	> 100 µM (inactive)	> 100 µM (inactive)	> 100 µM (inactive)	> 100 µM (inactive)	> 100 µM (inactive)	–	> 100 µM (inactive)	> 100 µM (inactive)	> 100	–	> 100 µM (inactive)	> 100 µM (inactive)	> 100 µM (inactive)	> 100 µM (inactive)	> 100 µM (inactive)	> 100 µM (inactive)	> 100 µM (inactive)	> 100 µM (inactive)
Cc1nc(N)nc(N)c1CCCc1ccccc1	6.25 µM (inactive)	1.49 µM (inactive)	20.8 µM (inactive)	6.35 µM (inactive)	7.59 µM (inactive)	1.73 µM (inactive)	6.11 µM (inactive)	–	7.18 µM (inactive)	9.95 µM (inactive)	2.87	–	11.2 µM (inactive)	3.18 µM (inactive)	4.78 µM (inactive)	5.4 µM (inactive)	4.48 µM (inactive)	4.35 µM (inactive)	2.15 µM (inactive)	15.2 µM (inactive)
Cc1ccc(S(=O)(=O)OC2CSSCC2OS(=O)(=O)c2ccc(C)cc2)cc1 (stereo not drawn)	4.35 µM (inactive)	18 µM (inactive)	15.2 µM (inactive)	2.62 µM (inactive)	13.3 µM (inactive)	19.2 µM (inactive)	16.8 µM (inactive)	–	10.9 µM (inactive)	13.4 µM (inactive)	10.2	–	17.3 µM (inactive)	13.8 µM (inactive)	12.6 µM (inactive)	14.7 µM (inactive)	11.9 µM (inactive)	15.3 µM (inactive)	9.68 µM (inactive)	29.8 µM (inactive)
Cc1cc(C)c2c(c1)CSCc1cc(C)cc(C)c1-2	23 µM (inactive)	30.9 µM (inactive)	39.4 µM (inactive)	21.1 µM (inactive)	33 µM (inactive)	18.1 µM (inactive)	34.1 µM (inactive)	–	22.5 µM (inactive)	25.1 µM (inactive)	32.4	–	44.8 µM (inactive)	17.3 µM (inactive)	22.6 µM (inactive)	38.7 µM (inactive)	25.2 µM (inactive)	35.4 µM (inactive)	19.3 µM (inactive)	24.2 µM (inactive)
CC(OC1CC(=O)CC2C(=O)C=CC(=O)C12)c1ccccc1 (stereo not drawn)	2.67 µM (inactive)	19.1 µM (inactive)	16 µM (inactive)	3.25 µM (inactive)	15.3 µM (inactive)	20.4 µM (inactive)	17.4 µM (inactive)	–	1.53 µM (inactive)	16.1 µM (inactive)	17.1	–	28.4 µM (inactive)	17.2 µM (inactive)	18.7 µM (inactive)	21.2 µM (inactive)	8.05 µM (inactive)	11.2 µM (inactive)	17.7 µM (inactive)	16.2 µM (inactive)
Cc1cc2c(cc1C)[n+]([O-])c(C(=O)/C=C/c1ccccc1Cl)c(C)[n+]2[O-]	37.2 µM (inactive)	33.9 µM (inactive)	18 µM (inactive)	29.9 µM (inactive)	26.1 µM (inactive)	31.8 µM (inactive)	20.1 µM (inactive)	–	12.7 µM (inactive)	36 µM (inactive)	22.5	–	43.2 µM (inactive)	31 µM (inactive)	24.1 µM (inactive)	27.9 µM (inactive)	21.8 µM (inactive)	24.5 µM (inactive)	34.8 µM (inactive)	49.2 µM (inactive)
CN(C)C(=S)/N=c1\ssc(=S)n1Cc1ccco1	0.975 µM (active)	1.98 µM (inactive)	5.57 µM (inactive)	0.379 µM (active)	3.79 µM (inactive)	3.79 µM (inactive)	11.1 µM (inactive)	0.274 µM (active)	0.249 µM (active)	2.16 µM (inactive)	2.2	0.22 µM (active)	2.9 µM (inactive)	2.4 µM (inactive)	2.15 µM (inactive)	7.46 µM (inactive)	1.99 µM (inactive)	32.3 µM (inactive)	0.998 µM (active)	6.9 µM (inactive)
Cc1c2cc[n+](C)cc2c(C)c2c1sc1ccccc12	0.776 µM (active)	0.159 µM (active)	8.69 µM (inactive)	3.33 µM (inactive)	0.33 µM (active)	0.542 µM (active)	1.12 µM (inactive)	2.05 µM (inactive)	0.661 µM (active)	1.1 µM (active)	18.3	2.77 µM (inactive)	0.205 µM (active)	4.06 µM (inactive)	4.73 µM (inactive)	0.199 µM (active)	0.395 µM (active)	4.7 µM (inactive)	3.85 µM (inactive)	3.01 µM (inactive)
COC(=O)[C@]12CC=C3O[C@@H]4OC5(CCCCC5)O[C@@H]4[C@H]3C1C(=O)C=CC2=O (stereo partly drawn)	4.13 µM (inactive)	32.1 µM (inactive)	17 µM (inactive)	8.91 µM (inactive)	20.2 µM (inactive)	17.9 µM (inactive)	18.4 µM (inactive)	> 10 µM (inactive)	5.53 µM (inactive)	16 µM (inactive)	15.6	19.1 µM (inactive)	38.3 µM (inactive)	16.8 µM (inactive)	17.4 µM (inactive)	3.97 µM (inactive)	17.5 µM (inactive)	18.5 µM (inactive)	17.9 µM (inactive)	33.2 µM (inactive)

Reference: ChEMBL document CHEMBL1201862, “PubChem BioAssay data set” (2004)
